{"source": "ChEMBL document CHEMBL6177948", "about": "“Discovery of potential Leonurine-based therapeutic lead MJ210 attenuates Parkinson's disease pathogenesis via NF-κB and MAPK pathways: Mechanistic insights from in vitro and in vivo rotenone models” (Eur J Med Chem, 2025)", "key": {"SH-SY5Y [1]": {"tested_on": "SH-SY5Y", "test": "Anti-apoptotic activity in rotenone-induced human SH-SY5Y cells assessed as reduction in Caspase-3 expression by Western blotting analysis", "format": "functional, cell-based"}, "SH-SY5Y [2]": {"tested_on": "SH-SY5Y", "test": "Reversal of rotenone-induced mitochondrial membrane depolarization in human SH-SY5Y cells assessed as increase in aggregates to monomer ratio at 5 uM preincubated with compound for 24 hrs followed by rotenone addition and measured after 24 hrs by JC-10 based fluorescence microscopic analysis", "format": "functional, cell-based", "conditions": "time 48.0 hrs"}, "SH-SY5Y [3]": {"tested_on": "SH-SY5Y", "test": "Neuroprotective activity against rotenone-induced mitochondrial morphological changes in human SH-SY5Y cells assessed as intact tubular at 5 uM preincubated with compound for 24 hrs followed by rotenone addition and measured after 24 hrs by Mito Tracker staining based fluorescence microscopic analysis", "format": "functional, cell-based", "conditions": "time 48.0 hrs"}, "[4]": {"biological_target": "Transcription factor p65 (Homo sapiens) (UniProt Q04206)", "sequence (Q04206 whole entry)": "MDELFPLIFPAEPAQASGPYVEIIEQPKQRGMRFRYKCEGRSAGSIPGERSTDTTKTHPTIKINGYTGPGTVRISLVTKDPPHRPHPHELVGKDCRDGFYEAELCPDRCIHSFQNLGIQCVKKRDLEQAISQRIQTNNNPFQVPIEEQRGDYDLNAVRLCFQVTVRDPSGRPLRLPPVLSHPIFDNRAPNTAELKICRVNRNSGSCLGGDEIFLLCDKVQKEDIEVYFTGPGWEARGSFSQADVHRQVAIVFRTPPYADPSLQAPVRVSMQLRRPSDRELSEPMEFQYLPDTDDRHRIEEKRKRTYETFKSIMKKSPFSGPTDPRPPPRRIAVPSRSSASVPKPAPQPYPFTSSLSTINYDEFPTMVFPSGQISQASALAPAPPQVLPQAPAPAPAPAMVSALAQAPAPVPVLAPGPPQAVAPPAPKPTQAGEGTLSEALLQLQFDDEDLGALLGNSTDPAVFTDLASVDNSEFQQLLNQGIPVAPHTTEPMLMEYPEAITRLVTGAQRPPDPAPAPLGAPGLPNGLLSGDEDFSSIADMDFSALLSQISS", "test": "Inhibition of rotenone-induced NFkappaB p65 translocation from cytosol to nucleus in human SH-SY5Y cells pretreated with compound followed by rotenone addition by DAPI staining based immunocytochemistry analysis", "format": "cell-based"}, "SH-SY5Y [5]": {"tested_on": "SH-SY5Y", "test": "Anti-inflammatory activity against rotenone-induced human SH-SY5Y cells assessed as reduction in iNOS mRNA expression level by RT-qPCR analysis", "format": "functional, cell-based"}, "Rattus norvegicus [6]": {"tested_on": "Rattus norvegicus", "test": "Anti-parkinson activity in rotenone-induced male Wistar rat model assessed as increase in TH expression in substantia nigra at 5 to 10 mg/kg, ip pretreated with compound every alternative days followed by rotenone addition and measured after 42 days by Western blotting analysis", "format": "functional, organism-based", "conditions": "dose 5-10 mg/kg, time 42.0 day"}, "[7]": {"test": "Stability in human serum assessed as compound remaining measured after 96 hrs by RP-HPLC analysis relative to control", "format": "ADME, cell-free", "conditions": "read-out: Stability"}, "Rattus norvegicus [8]": {"tested_on": "Rattus norvegicus", "test": "Anti-parkinson activity in rotenone-induced male Wistar rat model assessed as increase TH expression in striatum at 5 mg/kg, ip pretreated with compound every alternative days followed by rotenone addition and measured after 42 days by Western blotting analysis", "format": "functional, organism-based", "conditions": "time 42.0 day"}, "Rattus norvegicus [9]": {"tested_on": "Rattus norvegicus", "test": "Anti-parkinson activity in rotenone-induced male Wistar rat model assessed as increase DAT expression in striatum at 5 mg/kg, ip pretreated with compound every alternative days followed by rotenone addition and measured after 42 days by Western blotting analysis", "format": "functional, organism-based", "conditions": "time 42.0 day"}, "Rattus norvegicus [10]": {"tested_on": "Rattus norvegicus", "test": "Anti-parkinson activity in rotenone-induced male Wistar rat model assessed as improvement in t-total metrics at 5 mg/kg, ip pretreated with compound every alternative days followed by rotenone addition and measured after 42 days by pole test", "format": "functional, organism-based", "conditions": "time 42.0 day"}, "Rattus norvegicus [11]": {"tested_on": "Rattus norvegicus", "test": "Anti-parkinson activity in rotenone-induced male Wistar rat model assessed as decrease in fall time at 5 mg/kg, ip pretreated with compound every alternative days followed by rotenone addition and measured after 42 days by inverted grid test", "format": "functional, organism-based", "conditions": "time 42.0 day"}, "Rattus norvegicus [12]": {"tested_on": "Rattus norvegicus", "test": "Anti-parkinson activity in rotenone-induced neurodegeneration in male Wistar rat model assessed as reduced edema in substantia nigra at 5 mg/kg, ip pretreated with compound every alternative days followed by rotenone addition and measured after 42 days by H and E staining based analysis", "format": "functional, organism-based", "conditions": "time 42.0 day"}, "Rattus norvegicus [13]": {"tested_on": "Rattus norvegicus", "test": "Anti-parkinson activity in rotenone-induced neurodegeneration in male Wistar rat model assessed as reduction in pyknotic neurons in striatum at 5 mg/kg, ip pretreated with compound every alternative days followed by rotenone addition and measured after 42 days by Nissl staining based analysis", "format": "functional, organism-based", "conditions": "time 42.0 day"}, "Rattus norvegicus [14]": {"tested_on": "Rattus norvegicus", "test": "Anti-parkinson activity in rotenone-induced neurodegeneration in male Wistar rat model assessed as reduction in necrosis in striatum at 5 mg/kg, ip pretreated with compound every alternative days followed by rotenone addition and measured after 42 days by Nissl staining based analysis", "format": "functional, organism-based", "conditions": "time 42.0 day"}, "Rattus norvegicus [15]": {"tested_on": "Rattus norvegicus", "test": "(§1) In vivo inhibition of MAPK signaling pathway in rotenone-induced parkinson disease male Wistar rat model assessed as reduction in ERK1/2 phosphorylation level in striatum at 5 mg/kg, ip pretreated with compound every alternative days followed by rotenone addition and measured after 42 days by Western blotting analysis", "format": "functional, organism-based", "conditions": "time 42.0 day"}, "Rattus norvegicus [16]": {"tested_on": "Rattus norvegicus", "test": "as §1, with “JNK” for “ERK1/2”, “substantia nigra” for “striatum”", "format": "functional, organism-based", "conditions": "time 42.0 day"}, "Rattus norvegicus [17]": {"tested_on": "Rattus norvegicus", "test": "Anti-inflammatory activity in rotenone-induced male Wistar rat model assessed as reduction in PGE2 expression level in striatum at 5 mg/kg, ip pretreated with compound every alternative days followed by rotenone addition and measured after 42 days by ELISA", "format": "functional, organism-based", "conditions": "time 42.0 day"}, "[18]": {"test": "Toxicity in male Wistar rat assessed as change in cellular structure of spleen at 1 to 10 mg/kg by H and E staining based analysis", "format": "organism-based", "conditions": "in vivo, dose 1-10 mg/kg"}, "[19]": {"test": "Toxicity in male Wistar rat assessed as change in cellular structure of kidney at 1 to 10 mg/kg by H and E staining based analysis", "format": "organism-based", "conditions": "in vivo, dose 1-10 mg/kg"}, "[20]": {"test": "Drug uptake in male Wistar rat brain at 5 mg/kg, ip measured after 6 hrs by HPLC analysis", "format": "ADME, organism-based", "conditions": "in vivo"}, "[21]": {"test": "Half life in male Wistar rat at 50 mg/kg, ip measured after 24 hrs", "format": "ADME, organism-based", "conditions": "in vivo"}, "SH-SY5Y [22]": {"tested_on": "SH-SY5Y", "test": "Neuroprotective activity against rotenone-induced cytotoxicity in human SH-SY5Y cells assessed as increase in number of live cells by measuring mean fluorescence intensity", "format": "functional, cell-based"}}, "note": "The source made the active and inactive calls. The rule behind the calls is not given here."}
{"molecule": "COc1cc(CCC(=O)N2CCCCC2)cc(OC)c1OC(=O)c1ccccn1", "values": [{"measurement": "Activity", "setting": "SH-SY5Y [1]", "value": "Active"}, {"measurement": "Activity", "setting": "SH-SY5Y [2]", "value": "Active"}, {"measurement": "Activity", "setting": "SH-SY5Y [3]", "value": "Active"}, {"measurement": "inhibition", "setting": "[4]", "value": "Active"}, {"measurement": "Activity", "setting": "SH-SY5Y [5]", "value": "Active"}, {"measurement": "Activity", "setting": "Rattus norvegicus [6]", "value": "Active"}, {"measurement": "remaining at 96 h", "setting": "[7]", "value": 86, "unit": "%"}, {"measurement": "Activity", "setting": "Rattus norvegicus [8]", "value": "Active"}, {"measurement": "Activity", "setting": "Rattus norvegicus [9]", "value": "Active"}, {"measurement": "Activity", "setting": "Rattus norvegicus [10]", "value": "Active"}, {"measurement": "Activity", "setting": "Rattus norvegicus [11]", "value": "Active"}, {"measurement": "Activity", "setting": "Rattus norvegicus [12]", "value": "Active"}, {"measurement": "Activity", "setting": "Rattus norvegicus [13]", "value": "Active"}, {"measurement": "Activity", "setting": "Rattus norvegicus [14]", "value": "Active"}, {"measurement": "inhibition", "setting": "Rattus norvegicus [15]", "value": "Active"}, {"measurement": "inhibition", "setting": "Rattus norvegicus [16]", "value": "Active"}, {"measurement": "Activity", "setting": "Rattus norvegicus [17]", "value": "Active"}, {"measurement": "Activity", "setting": "[18]", "value": "Non-toxic"}, {"measurement": "Activity", "setting": "[19]", "value": "Non-toxic"}, {"measurement": "Drug uptake", "setting": "[20]", "value": "Active"}, {"measurement": "half-life", "setting": "[21]", "value": 8.5, "unit": "h"}, {"measurement": "Activity", "setting": "SH-SY5Y [22]", "value": "Active"}]}
